Source: ChEMBL document CHEMBL3860094, “Synthesis, structure determination, and biological evaluation of phenylsulfonyl hydrazide derivatives as potential anti-inflammatory agents” (Bioorg Med Chem Lett, 2016)

How the values were obtained:
[1] = molecular target: T1, Prostaglandin E synthase (Mus musculus) (UniProt Q9JM51); assay: Inhibition of mPGES-1 in mouse RAW264.7 cells assessed as reduction in LPS-induced PGE2 production at 1 uM after 24 hrs relative to control; assay type: cell-based
T1 sequence (whole entry): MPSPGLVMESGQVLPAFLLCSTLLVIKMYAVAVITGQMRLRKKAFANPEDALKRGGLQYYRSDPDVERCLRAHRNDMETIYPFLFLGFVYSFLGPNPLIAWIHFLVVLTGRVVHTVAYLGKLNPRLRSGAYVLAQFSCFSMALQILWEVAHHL

Prostaglandin E synthase = molecular target: T2, Prostaglandin E synthase (Mus musculus, UniProt Q9JM51); assay: Inhibition of mPGES-1 in mouse RAW264.7 cells assessed as reduction in LPS-induced PGE2 production after 24 hrs; assay type: cell-based
T2 sequence (Q9JM51 whole entry): T1 sequence (whole entry)

Mus musculus = species: Mus musculus; assay: Cytotoxicity against LPS-stimulated mouse RAW264.7 cells assessed as concentration required for reduction in cell viability after 24 hrs by MTT assay; assay type: toxicity, cell-based; settings: raw264.7, 24 h
[2] = molecular target: T1, Prostaglandin E synthase (Mus musculus); assay: Inhibition of mPGES-1 in mouse RAW264.7 cells assessed as reduction in LPS-induced PGE2 production at 10 uM after 24 hrs relative to control; assay type: cell-based
[3] = molecular target: T3, Prostaglandin G/H synthase 1 (Ovis aries, UniProt P05979); assay: Inhibition of ovine COX1 by enzyme immunoassay
T3 sequence (P05979 whole entry): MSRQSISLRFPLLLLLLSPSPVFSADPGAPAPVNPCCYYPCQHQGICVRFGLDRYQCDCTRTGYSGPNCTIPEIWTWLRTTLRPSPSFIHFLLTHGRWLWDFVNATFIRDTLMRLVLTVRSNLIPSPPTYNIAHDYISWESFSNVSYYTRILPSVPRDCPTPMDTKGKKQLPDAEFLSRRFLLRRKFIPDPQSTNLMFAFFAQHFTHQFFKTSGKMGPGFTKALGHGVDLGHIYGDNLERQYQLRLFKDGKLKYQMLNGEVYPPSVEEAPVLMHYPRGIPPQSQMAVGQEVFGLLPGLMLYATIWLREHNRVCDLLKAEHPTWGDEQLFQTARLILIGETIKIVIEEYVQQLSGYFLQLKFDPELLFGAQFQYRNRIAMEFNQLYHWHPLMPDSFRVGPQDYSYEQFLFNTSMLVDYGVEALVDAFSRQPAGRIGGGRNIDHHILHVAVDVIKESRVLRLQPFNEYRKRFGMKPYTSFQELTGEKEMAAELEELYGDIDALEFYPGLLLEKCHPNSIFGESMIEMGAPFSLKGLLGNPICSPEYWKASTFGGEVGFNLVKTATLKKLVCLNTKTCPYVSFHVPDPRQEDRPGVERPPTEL

[4] = Metabolic stability in mouse liver microsomes assessed as compound remaining after 30 mins; assay type: ADME; settings: read-out: Stability
[5] = Metabolic stability in human liver microsomes assessed as compound remaining after 30 mins; assay type: ADME; settings: read-out: Stability
[6] = molecular target: T4, Prostaglandin G/H synthase 2 (Homo sapiens, UniProt P35354); assay: Inhibition of recombinant human COX2 by enzyme immunoassay
T4 sequence (P35354 whole entry): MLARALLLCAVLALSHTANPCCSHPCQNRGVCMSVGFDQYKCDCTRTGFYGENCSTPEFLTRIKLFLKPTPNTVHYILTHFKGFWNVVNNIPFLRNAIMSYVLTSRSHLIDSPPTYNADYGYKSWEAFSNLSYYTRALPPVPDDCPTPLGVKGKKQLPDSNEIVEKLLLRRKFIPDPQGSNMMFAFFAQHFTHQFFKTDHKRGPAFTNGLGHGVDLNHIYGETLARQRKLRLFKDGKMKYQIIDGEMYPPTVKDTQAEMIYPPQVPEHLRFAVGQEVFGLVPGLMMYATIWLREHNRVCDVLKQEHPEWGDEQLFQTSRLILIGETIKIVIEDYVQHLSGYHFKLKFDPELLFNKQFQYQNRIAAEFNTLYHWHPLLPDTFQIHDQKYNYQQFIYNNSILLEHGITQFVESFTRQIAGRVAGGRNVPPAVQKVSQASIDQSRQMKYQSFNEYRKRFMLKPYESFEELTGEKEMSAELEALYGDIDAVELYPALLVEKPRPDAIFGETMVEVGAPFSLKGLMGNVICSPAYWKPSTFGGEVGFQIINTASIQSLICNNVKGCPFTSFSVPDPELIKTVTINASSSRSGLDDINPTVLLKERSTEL

[7] = Metabolic stability in rat liver microsomes assessed as compound remaining after 30 mins; assay type: ADME; settings: read-out: Stability
[8] = Metabolic stability in dog liver microsomes assessed as compound remaining after 30 mins; assay type: ADME, Canis lupus familiaris; settings: read-out: Stability
[9] = molecular target: T1, Prostaglandin E synthase (Mus musculus); assay: Inhibition of mPGES-1 in mouse RAW264.7 cells assessed as reduction in LPS-induced PGE2 production at 3 uM after 24 hrs relative to control; assay type: cell-based

Structure (SMILES)	inhibition [1] [%]	IC50 (Prostaglandin E synthase) [nM]	Activity (Mus musculus) [µM]	inhibition [2] [%]	IC50 [3] [nM]	remaining at 0.5 h [4] [%]	remaining at 0.5 h [5] [%]	IC50 [6] [nM]	remaining at 0.5 h [7] [%]	remaining at 0.5 h [8] [%]	inhibition [9] [%]
COc1ccc(S(=O)(=O)NN(C(=O)Oc2ccccc2OC)c2ccccc2)cc1	0	> 10000	> 10	18							
COc1ccc(S(=O)(=O)N(Nc2ccccc2)C(=O)Oc2ccc(OCc3ccccc3)cc2)cc1	84	60	> 10		> 1000	42.2	66.6	> 1000	16.3	48.5	
CS(=O)(=O)Nc1ccc([N+](=O)[O-])cc1OC1CCCCC1 [NS-398]		7									86
COc1ccc(S(=O)(=O)N(Nc2ccccc2)C(=O)Oc2ccccc2OC)cc1	63	690	> 10		> 1000			> 1000			
COc1ccc(CCN(C)CCCC(C#N)(c2ccc(OC)c(OC)c2)C(C)C)cc1OC (stereo unspecified)							< 5				
O=C(Oc1ccc2c(c1)CCC2)N(Nc1ccccc1)S(=O)(=O)c1ccc(Cl)cc1	75	550	> 10		> 1000			> 1000			
O=C(Oc1ccc2c(c1)CCC2)N(NS(=O)(=O)c1ccc(Cl)cc1)c1ccccc1	73	790	> 10		> 1000			> 1000			
